Test results as given in patent publication US20240190994A1, “FUSION PROTEIN BETWEEN ANTIGEN-BINDING MOLECULE AND STREPTAVIDIN VARIANT” (The University of Tokyo, priority 2021, published 2024).

How the values were obtained:
[1] = system: KPL-4 xenograft (HER2-positive breast cancer); test: in vivo breast cancer tumor model experiment, tumor volume; design: species or system BALB/cSlc-nu/nu nude mice
Experimental: The KPL-4 cell line was maintained in DMEM (low glucose) (FUJIFILM Wako Pure Chemical Corporation, Osaka, Japan) supplemented with 10% FBS, 100 U/mL penicillin, and 100 μg/mL streptomycin (#15140122, Thermo Fisher Scientific, Waltham, MA, USA) (Kurebayashi J, Otsuki T, Tang CK, et al. Isolation and characterization of a new human breast cancer cell line, KPL-4, expressing the Erb B family receptors and interleukin-6. Br J Cancer. 1999; 79: 707-717. doi:10.1038/sj.bjc.6690114). The KPL-4 cells (7,500,000) were subcutaneously transplanted into the thigh of BALB/cSlc-nu/nu nude mice (Sankyo Lab Service, Inc., Tokyo, Japan). Proliferation of the subcutaneous tumor was monitored by measuring a tumor volume (0.5×length×width^2) using Vernier calipers, and the body weight of the animals was then monitored as an indicator of treatment-related toxicity.
In this study, in order to evaluate tumor recurrence, the observation period was set to be […] after the initial treatment. […] Finally, the xenograft mouse models were sacrificed at 97 days after the treatment, namely, at 19 days or more after the second treatment.
Preparation of ZHER2:342-Cupid-His and Psyche-Ax-SiPC was as previously reported (Yamatsugu K, Katoh H, Yamashita T, et al., Antibody mimetic drug conjugate manufactured by high-yield Protein Expr Purif. 2022; 192: 106043. doi:10.1016/j.pep.2021 106043). Briefly speaking, Psyche-Ax-SiPC solubilized in dimethyl sulfoxide at a concentration of 5 mM was preserved as a stock solution at −80° C. In order to prepare a complex, ZHER2:342-Cupid-His and Psyche-Ax-SiPC were mixed with each other at a molar ratio of 1:2 in a dark place on ice for 10 minutes. A concentrate of ZHER2:342-Cupid-His-Ax-SiPC was diluted using a phosphate-buffered saline.
Twenty hours after the injection, the mice in the ZHER2:342-Cupid-His-Ax-SiPC group were irradiated with a 690-nm light emitting diode light (Yamato Scientific Co., Ltd., Tokyo, Japan) at 230 J/cm^−2. Forty-eight hours after the initial light irradiation, the tumor was irradiated again in the same manner as that described above.

[2] = system: KPL-4 xenograft tumor site, skin and major organs; test: pathological analysis (H & E histology) of xenograft mouse models; format: in vivo, BALB/cSlc-nu/nu nude mice; conditions: 97th day
Source text: Skin samples from xenograft tumor sites, and samples from other important organs including lung, heart, kidney, liver and gastrointestinal tract, were obtained from the mice. […] Stained slides were dehydrated again by being immersed in ethanol and then being immersed in xylene. […] The H & E-stained slides were histologically examined using the OLYMPUS cellSens Standard system (OLYMPUS, Tokyo, Japan).

**Q.** What does the source list for trastuzumab emtansine [Kadcyla]?
**A.** tumor size after the first treatment ([1]; Kadcyla 300 μg/mouse, ZHER2:342-Cupid-His-Ax-SiPC 150 μg/mouse with 690-nm light, n=10, FIG. 11): a reduction in the tumor size was observed; cases with tumor volume decreased to 0 mm^3 ([1]; at 21 days after the injection, n=10): 1 case; course of tumor volume after the treatment ([1]; single administration, FIGS. 11B-D): gradually decreased; tumor size in the long term after single treatment ([1]; up to 2 months after the injection): steady decrease in the tumor size; pathological response [2]: pathological complete remission was achieved; metastatic tumors in lymph nodes or distant organs ([2]; FIG. 13 and FIG. 14): No metastatic tumors were observed; residual tumor cells in the subcutaneous region around the xenograft tumor site ([2]; n=10, FIG. 13 and FIG. 14): no residual tumor cells were observed
